The values that follow come from patent US7410993B2, “3,6-disubstituted azabicyclo [3.1.0] hexane deriviatives useful as muscarinic receptor antagonists” (Ranbaxy Laboratories Limited, priority 2002, dated 2008).

This assay has as its target T1, M2 muscarinic receptor (Rattus norvegicus, UniProt P10980).
T1 construct: Submandibular glands and heart were isolated and placed in ice cold homogenizing buffer; from tissue; host or cells: rat heart membrane homogenate
T1 sequence (P10980 1-466): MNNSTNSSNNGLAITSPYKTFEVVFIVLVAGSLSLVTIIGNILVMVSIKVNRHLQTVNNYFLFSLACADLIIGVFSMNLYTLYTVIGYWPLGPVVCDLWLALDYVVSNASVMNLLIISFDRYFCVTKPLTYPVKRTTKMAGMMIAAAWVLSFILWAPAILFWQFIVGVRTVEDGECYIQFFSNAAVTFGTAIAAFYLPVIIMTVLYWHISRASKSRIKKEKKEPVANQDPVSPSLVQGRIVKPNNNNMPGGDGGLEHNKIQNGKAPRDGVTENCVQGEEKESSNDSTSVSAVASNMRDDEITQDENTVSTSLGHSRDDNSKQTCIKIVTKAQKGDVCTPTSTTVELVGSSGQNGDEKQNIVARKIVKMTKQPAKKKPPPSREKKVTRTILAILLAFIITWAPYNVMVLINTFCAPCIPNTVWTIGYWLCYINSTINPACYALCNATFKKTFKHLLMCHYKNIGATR
Briefly: Radioligand binding assay, [3H]-N-methylscopolamine, rat heart membranes. The following applies: [3H]NMS binding.

SMILES strings stand for the structures.

As to `Cc1ccc(O)c(C(CCN2CC3CC3C2C)c2ccccc2)c1` (single isomer, unassigned) [Compound No. 9, 1-(2-methyl-3-azabicyclo[3.1.0]hex-3-yl)-3-(2-hydroxy-5-methylphenyl)-3-phenyl propane], the affinity corresponds to a Ki of 42 nM.

In turn, `Cc1ccc(O)c(C(CCN2CC3CC3C2C)c2ccccc2)c1` (single isomer, unassigned) [Compound No. 8, 1-(2-methyl-3-azabicyclo[3.1.0]hex-3-yl)-3-(2-hydroxy-5-methylphenyl)-3-phenyl propane] showed a Ki of 34 nM. The compound `Cc1ccc(O)c(C(CCN2CC3CC3C2)c2ccccc2)c1` (stereo not drawn) [Compound No. 2, 1-(3-azabicyclo[3.1.0]hex-3-yl)-3-(2-hydroxy-5-methylphenyl)-3-phenyl propane] came in with an inhibition constant (Ki) of 105 nM.

Compound `Cc1ccc(O)c(C(CCN2CC3CC3(C)C2)c2ccccc2)c1` (stereo not drawn) [Compound No. 6, 1-(1-methyl-3-azabicyclo[3.1.0]hex-3-yl)-3-(2-hydroxy-5-methylphenyl)-3-phenyl propane] returned an inhibition constant (Ki) of 221 nM.

As for `Cc1ccc(O)c(C(CCN2CC3(C)CC3(C)C2)c2ccccc2)c1` (stereo not drawn) [Compound No. 4, 1-(1,5-dimethyl-3-azabicyclo[3.1.0]hex-3-yl)-3-(2-hydroxy-5-methylphenyl)-3-phenyl propane], the Ki was > 1000 nM. In the case of `Cc1ccc(OCc2ccccc2)c(C(CCN2CC3(C)CC3(C)C2)c2ccccc2)c1` (stereo not drawn) [Compound No. 3, 1-(1,5-dimethyl-3-azabicyclo[3.1.0]hex-3-yl)-3-(2-benzyloxy-5-methylphenyl)-3-phenyl propane] it was > 10000 nM.

A word on the Ki: it is the equilibrium dissociation constant of an inhibitor or competing ligand from its target.
